Laboratory results from PMC8791557 (Environment international, 2021).
Read-outs that look alike come from different tables or passages of the source.

How the values were obtained:
[1] = type: in vivo, human; conditions: for Tmax of metabolite: median; for k1e / k12 / k21 / ka / α / β: two-compartmental model
[2] = human, in vivo; cited from earlier work
[3] = metabolite in plasma after 25 ng [14C]-BaP oral
[4] = metabolite in plasma after 50 ng [14C]-BaP oral
[5] = metabolite in plasma after 100 ng [14C]-BaP oral
[6] = metabolite in plasma after 250 ng [14C]-BaP oral
[7] = 50 ng [14C]-BaP oral, mean ± SD
[8] = 100 ng [14C]-BaP oral, mean ± SD
[9] = 250 ng [14C]-BaP oral, mean ± SD

SMILES: Oc1ccc2ccc3c4ccccc4cc4ccc1c2c43 [3-OH, 3 - OH BaP]
- Tmax of metabolite [1, 3]: 1.0 h
- Tmax of metabolite [1, 4]: 1.25 h
- Tmax of metabolite [1, 5]: 1.0 h
- Tmax of metabolite [1, 6]: 1.5 h

SMILES: Oc1ccc2cc3ccc4cccc5ccc(c2c1)c3c45 [9-OH, 9 - OH BaP]
- Tmax of metabolite [1, 3]: 0.5 h
- Tmax of metabolite [1, 4]: 1.0 h
- Tmax of metabolite [1, 5]: 1.0 h
- Tmax of metabolite [1, 6]: 0.75 h

SMILES: c1ccc2c(c1)cc1ccc3cccc4ccc2c1c34 [[^14C]-BaP, Benzo[a]pyrene]
- k1e ([1]; 25 ng [14C]-BaP oral, n = 1): 0.0068 NA 1/h
- k12 ([1]; 25 ng [14C]-BaP oral, n = 1): 0.331 NA 1/h
- k21 ([1]; 25 ng [14C]-BaP oral, n = 1): 0.028 NA 1/h
- ka ([1]; 25 ng [14C]-BaP oral, n = 1): 592 NA 1/h
- α ([1]; 25 ng [14C]-BaP oral, n = 1): 0.366 NA 1/h
- β ([1]; 25 ng [14C]-BaP oral, n = 1): 5.03 × 10^−4 NA 1/h
- k1e [1, 7]: 0.694 ± 0.412 n = 5 1/h
- k12 [1, 7]: 0.83 ± 1.11 n = 5 1/h
- k21 [1, 7]: 0.270 ± 0.253 n = 5 1/h
- ka [1, 7]: 1.30 × 10^7 ± 2.90 × 10^7 n = 5 1/h
- α [1, 7]: 1.69 ± 0.89 n = 5 1/h
- β [1, 7]: 0.105 ± 0.164 n = 5 1/h
- k1e [1, 8]: 0.558 ± 0.897 n = 6 1/h
- k12 [1, 8]: 2.60 ± 3.45 n = 6 1/h
- k21 [1, 8]: 0.190 ± 0.180 n = 6 1/h
- ka [1, 8]: 3.52 ± 4.75 n = 6 1/h
- α [1, 8]: 3.33 ± 4.28 n = 6 1/h
- β [1, 8]: 0.020 ± 0.021 n = 6 1/h
- k1e [1, 9]: 1.25 ± 1.71 n = 7 1/h
- k12 [1, 9]: 4.27 ± 6.92 n = 7 1/h
- k21 [1, 9]: 0.290 ± 0.564 n = 7 1/h
- ka [1, 9]: 43.2 ± 111 n = 7 1/h
- α [1, 9]: 5.80 ± 6.64 n = 7 1/h
- β [1, 9]: 0.014 ± 0.019 n = 7 1/h
- increase of compartmental model apparent volume of distribution ([1]; both, human, in vivo): 4.6 ×
- increase of mean non-compartmental apparent volume of distribution ([1]; both, human, in vivo): 15 ×
- Tmax ([1]; both, human, in vivo, Tmax): 0.5 to 1 h
- half-life ([1]; both, human, in vivo, average half-life across doses): 46.5 ± 58.2 h
- Tmax ([1]; both, human, in vivo, median Tmax): 0.5 h
- Tmax ([1]; both, human, in vivo, po, Tmax (Median)): 0.5 h
- Tmax ([1]; both, human, in vivo, po, Tmax (Range)): 0.5 to 4 h
- Tmax ([1]; both, human, in vivo, po, median Tmax): 0.5 h
- half-life ([1]; both, human, in vivo, po, α half-life): 0.484 ± 0.187 h
- AUC0–48h, range of dose-group means ([1]; human, in vivo): 12.2 ± 14.5 to 88.5 ± 14.1
- Cmax, range of dose-group means ([1]; human, in vivo): 2.51 ± 2.53 to 13.8 ± 9.52
- Clearance ([1]; human, in vivo, po): 811 n = 1 L/h
- half-life ([1]; human, in vivo, po, Half-life): 4.31 h
- half-life ([1]; human, in vivo, po, α half-life): 1.89 h
- half-life ([1]; human, in vivo, po, β half-life): 1310 h
- Tmax [2]: 0.75 to 1.0 h
